Experimental data taken from US4501733A, “Polypeptides, a process for their preparation, their use, and a _process for the purification of polypeptides” (Ferring Arzneimittel GmbH, priority 1982, dated 1985).
Square brackets hold non-standard residues; d marks the D form. Peptide text beside a SMILES is read from it. * marks the point of attachment. Propionyl = CCC(=O)*

What was measured:
ileum in guinea pigs = conditions: Folkers et al. 1981; Rosell et al. 1981; cited from earlier work
SP-induced salivation = conditions: Folkers et al. 1981; Rosell et al. 1981; cited from earlier work
vasodilation = conditions: Folkers et al. 1981; Rosell et al. 1981; cited from earlier work
ileum from guinea pigs = assay: Inhibition of SP- or Nle-SP-induced contraction of isolated guinea pig ileum (organ bath, isotonic measurement); conditions: for relative antagonistic potency (comparison of the antagonists): agonist 10^-8 M; for relative antagonistic potency (comparison of the antagonists) / Percentage inhibiting action: antagonist 10^-5 M; for Percentage inhibiting action: agonist SP or Nle-SP 10^-8 M, guinea pig ileum contraction; for substance P-antagonizing action: antagonist used in a concentration of 10^-5 M, agonist SP or Nle-SP
Excerpt: The ileum from guinea pigs was cut out after the animals had been sacrificed, was substantially freed from mesenteria by pulling at the caudal end and was freed from digestion products with Tyrode's solution. About 25 cm were discarded from the caudal end, and several sections of intestine 4 cm long were then removed and stored in Tyrode's solution. The Tyrode's solution was gassed with carbogen (95% of O2 and 5% of CO2). The Tyrode's solution contained the following substances per liter: 8 g of NaCl; […]; 1.3 g of CaCl2.2H2 O; 2.1 g of MgCl2.6H2 O; […]; 0.58 g of NaH2 PO4.1H2 O; and 11 g of D(+)-glucose.
The Tyrode's solution was thermostatically controlled at 38° C. in an organ bath. Each preparation retained its complete contractility for 4 to 7 hours. 4 cm sections of intestine were tied on both sides and suspended in the organ bath. The contractions of the preparation were recorded under isotonic measurement conditions via a lever on a Kymograph drum. The writing was done by a felt-tip pen arranged as a lateral pen. The load arm was 225 mm and the power arm 20 mm long. The pre-load was about 0.3 g and the paper speed was 5 mm/minute. The organ bath contained 10 ml.
As a rule, the test substances were added in volumes of 2 to 100 μl, and were distributed instantaneously in the organ bath by the gassing. All the test substances added were dissolved in Tyrode's solution or diluted with Tyrode's solution from a stock solution.
Test substances: substance P (Serva) or norleucine-SP (Ferring, Kiel) were used as agonists, in doses of between 10^-9 and 10^-7 M. The following compounds were tested as potential antagonists:
In the standard test, SP or Nle-SP was applied in a concentration of between 10^-9 and 10^-7 M, and was washed out after about 2 minutes. After a latency period of a further 3 minutes, the potential antagonist was applied in a concentration of 3×10^-6, 10^-5 or 3.3×10^-5 M, directly followed by a further dose of SP (Nle-SP). After renewed washing out and a waiting time of 3 minutes, SP (Nle-SP) was again applied in the same dose, in order to investigate whether the original contraction strength is reached.
The reduction in the relative contraction of the ileum preparations as a result of using SP analogs was regarded as a measure of the relative activity as antagonists.

Compound | inhibition of the contraction of the ileum in guinea pigs caused by SP (ileum in guinea pigs) | inhibition of SP-induced salivation (SP-induced salivation) | inhibition of vasodilation caused by antidromic nerve stimulation and SP-induced vasodilation (vasodilation) | relative antagonistic potency (comparison of the antagonists) (ileum from guinea pigs) | Percentage inhibiting action (ileum from guinea pigs) [%] | substance P-antagonizing action (ileum from guinea pigs)
D-Pro^2, D-Phe^7 and D-Trp-^9 -SP | inhibit | inhibit | inhibit | – | – | –
CSCC[C@H](NC(=O)[C@H](CC(C)C)NC(=O)[C@@H](Cc1c[nH]c2ccccc12)NC(=O)[C@H](Cc1ccccc1)NC(=O)[C@@H](Cc1c[nH]c2ccccc12)NC(=O)[C@H](CCC(N)=O)NC(=O)[C@@H](N)CCCNC(=N)N)C(N)=O [compound 2, H-Arg-Gln-D-Trp-Phe-D-Trp-Leu-Met-NH2] (H-RQ[dW]F[dW]LM-NH2) | – | – | – | most powerful action | 68.1 ± 8 | substance P-antagonizing action
CSCC[C@H](NC(=O)[C@H](CC(C)C)NC(=O)[C@@H](Cc1c[nH]c2ccccc12)NC(=O)[C@H](Cc1ccccc1)NC(=O)[C@@H](Cc1c[nH]c2ccccc12)NC(=O)[C@H](CCC(N)=O)NC(=O)[C@@H]1CCCN1)C(N)=O [compound 3, H-Pro-Gln-D-Trp-Phe-D-Trp-Leu-Met-NH2] (H-PQ[dW]F[dW]LM-NH2) | – | – | – | most powerful action | 69.5 ± 0.5 | substance P-antagonizing action
CCC(=O)N[C@@H](CCC(N)=O)C(=O)N[C@H](Cc1c[nH]c2ccccc12)C(=O)N[C@@H](Cc1ccccc1)C(=O)N[C@H](Cc1c[nH]c2ccccc12)C(=O)N[C@@H](CC(C)C)C(=O)N[C@@H](CCSC)C(N)=O [compound 4, Propionyl-Gln-D-Trp-Phe-D-Trp-Leu-Met-NH2] (Propionyl-Q[dW]F[dW]LM-NH2) | – | – | – | lower but significant inhibiting action | 29.3 ± 9.5 | substance P-antagonizing action
